From US20100119599A1 (ARCHER PHARMACEUTICALS, INC., priority 2006, published 2010)
Like-named read-outs stand apart in the source and are kept apart here.

What was measured:
Aβ1-42 = assay: Measurement of Aβ1-42 in culture medium of 7W WT APP751 CHO cells by ELISA; assay type: cell-based, Chinese hamster; details: for Aβ1-42 (% of control): CHO cells that overexpress APP751, zero = below the detection limit of the assay; for activity at 5 µM: Cricetulus griseus, 5 μM test compound, CHO cells stably transfected with human APP751, culture medium, ELISA, control DMSO;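 for Aβ1-42 (% of control): 5 µM test compound but RI-coded compounds at 10 µM for 24 hours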
Aβ1-40 = assay: Measurement of Aβ1-40 in culture medium of 7W WT APP751 CHO cells by ELISA; assay type: cell-based, Chinese hamster; details: for Aβ1-40 (% of control): CHO cells that overexpress APP751, zero = below the detection limit of the assay; for activity at 5 µM: Cricetulus griseus, 5 μM test compound, CHO cells stably transfected with human APP751, culture medium, ELISA, control DMSO;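 for all read-outs here: 5 µM test compound but RI-coded compounds at 10 µM for 24 hours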
[1] = Table 1, 0 = no detectable amount, read-out: Aβ1-42 (% of control)
[2] = Table 1, 0 = no detectable amount

SMILES | Aβ1-42 (% of control) (Aβ1-42) | Aβ1-40 (% of control) (Aβ1-40) | activity at 5 µM (Aβ1-42; [1]) [%] | activity at 5 µM (Aβ1-40; [2]) [%] | also measured
CC1=C(C(=O)OC(C)(C)C)C(c2ccc(Cl)cc2)C(C#N)=C(SCC(=O)Nc2cccc(C)c2C)N1 (stereo not drawn) [ST050424, tert-butyl 6-{[N-(2,3-dimethylphenyl)carbamoyl]methylthio}-4-(4-chlorophenyl)-5-cyano-2-methyl-1,4-dihydropyridine-3-carboxylate] | 52.29 % of control | 41.21 % of control | – | – | –
CC1=C(C(=O)Nc2ccccc2)C(c2cccs2)C(C#N)=C(SCC(=O)Nc2ccc(Cl)cc2)N1 (stereo not drawn) [RI_74] | 41.6 % of control | 31.4 % of control | – | – | –
CC1=C(C(=O)Nc2ccccc2)C(c2cccs2)C(C#N)=C(SCC(=O)Nc2ccc(C(C)(C)C)cc2)N1 (stereo not drawn) [RI_63] | 38.8 % of control | 38.2 % of control | – | – | –
N#CC1=C(N)n2c(s/c(=C\c3cccc(Br)c3)c2=O)=C(C#N)C1c1cccc(Br)c1 (stereo not drawn) [RI_96] | 70.5 % of control | 71.3 % of control | – | – | –
CCOC(=O)C1=C(C)NC2=C(C(=O)CCC2)C1c1ccc(Cl)cc1 (stereo not drawn) [ST024440, ethyl 4-(4-chlorophenyl)-2-methyl-5-oxo-1,4,6,7,8-pentahydroquinoline-3-carboxylate] | – | – | 97.7 | 63.1 | –
CCCOC(=O)C1=C(C)NC2=C(C(=O)CC(C)(C)C2)C1c1ccccc1 (stereo not drawn) [ST017262, propyl 2,7,7-trimethyl-5-oxo-4-phenyl-1,4,6,7,8-pentahydroquinoline-3-carboxylate] | – | – | 86 | 60.1 | –
COc1cc(C2C(C(=O)OC3CCCCC3)=C(C)NC3=C2C(=O)CC(c2ccccc2)C3)ccc1O (stereo not drawn) [ST013387, cyclohexyl 4-(4-hydroxy-3-methoxyphenyl)-2-methyl-5-oxo-7-phenyl-1,4,6,7,8-pentahydroquinoline-3-carboxylate] | – | – | 26.4 | 40 | –
CCCCCCNC(=O)CSC1=C(C#N)C(c2ccccc2)C(C(=O)Nc2ccc(Cl)cc2)=C(C)N1 (stereo not drawn) [RI_35] | 78.6 % of control | 55.4 % of control | – | – | –
CC1=C(C(=O)Nc2ccccc2)C(Cc2ccccc2)C(C#N)=C(SCC(=O)Nc2cccc(C)c2)N1 (stereo not drawn) [RI_34] | 26.1 % of control | 31.4 % of control | – | – | –
COc1cc(/C=c2\sc3n(c2=O)C(N)=C(C#N)C(c2ccc(O)c(OC)c2)C=3C#N)ccc1O (stereo not drawn) [ST025032, 5-amino-7-(4-hydroxy-3-methoxyphenyl)-2-[(4-hydroxy-3-methoxyphenyl)methylene]-3-oxo-4,7-dihydro-1,3-thiazolidino[3,2-a]pyridine-6,8-dicarbonitrile] | 32.98 % of control | 27.77 % of control | – | – | –
CC1=C(C(=O)Nc2ccccc2C)C(c2cccs2)C(C#N)=C(SCC(=O)Nc2ccc(C)c(Cl)c2)N1 (stereo not drawn) [ST050840, N-(3-chloro-4-methylphenyl)-2-{3-cyano-6-methyl-5-[N-(2-methylphenyl)carbamoyl]-4-(2-thienyl)(2-1,4-dihydropyridylthio)}acetamide] | 38.84 % of control | 52.3 % of control | – | – | –
COC(=O)C1=C(N)n2c(s/c(=C/c3ccc(Cl)cc3Cl)c2=O)=C(C(=O)OC)C1c1ccc(Cl)cc1Cl (stereo not drawn) [ST011769, methyl 5-amino-7-(2,4-dichlorophenyl)-2-[(2,4-dichlorophenyl)methylene]-6-(methoxycarbonyl)-3-oxo-4,7-dihydro-1,3-thiazolidino[3,2-a]pyridine-8-carboxylate] | 71.56 % of control | 42.3 % of control | – | – | –
CCc1cccc(NC(=O)CSC2=C(C#N)C(c3sccc3Oc3ccccc3)C(C(=O)Nc3ccccc3)=C(C)N2)c1 (stereo not drawn) [RI_81] | 100 % of control | 73.6 % of control | – | – | –
CCOC(=O)C1=C(C)NC2=C(C(=O)CC(C)(C)C2)C1c1ccc(Cl)cc1Cl (stereo not drawn) [ST020008, ethyl 4-(2,4-dichlorophenyl)-2,7,7-trimethyl-5-oxo-1,4,6,7,8-pentahydroquinoline-3-carboxylate] | – | – | 95.7 | 61.7 | –
CC1=C(C(=O)OC(C)C)C(c2ccncc2)C2=C(CCCC2=O)N1 (stereo not drawn) [ST013090, methylethyl 2-methyl-5-oxo-4-(4-pyridyl)-1,4,6,7,8-pentahydroquinoline-3-carboxylate] | – | – | 87.3 | 41.1 | –
CC1=C(C(=O)OCCc2ccccc2)C(c2ccc(Cl)cc2)C2=C(CC(C)(C)CC2=O)N1 (stereo not drawn) [ST015106, 2-phenylethyl 4-(4-chlorophenyl)-2,7,7-trimethyl-5-oxo-1,4,6,7,8-pentahydroquinoline-3-carboxylate] | – | – | 0 | 13.2 | –
COc1ccc(C2C(C(=O)OC3CCCCCC3)=C(C)NC3=C2C(=O)CC(C)(C)C3)c(OC)c1OC (stereo not drawn) [ST024504, cycloheptyl 2,7,7-trimethyl-5-oxo-4-(2,3,4-trimethoxyphenyl)-1,4,6,7,8-pentahydroquinoline-3-carboxylate] | – | – | 0 | 0.415 | –

SMILES | Aβ1-42 (% of control) (Aβ1-42) | Aβ1-40 (% of control) (Aβ1-40) | activity at 5 µM (Aβ1-42; [1]) [%] | activity at 5 µM (Aβ1-40; [2]) [%] | also measured
COc1ccc(NC(=O)CSC2=C(C#N)C(c3ccsc3)C(C(=O)Nc3ccccc3)=C(C)N2)cc1 (stereo not drawn) [RI_59] | 30.6 % of control | 27.7 % of control | – | – | –
N#CC(C#N)=CC=C1C=CN(Cc2ccccc2)C=C1 [ST208051, {2-[1-benzyl-4-hydropyridylidene]ethylidene}methane-11-dicarbonitrile] | – | – | – | – | activity at 5 µM (Aβ1-42; Table 3, read-out: Aβ-42 (% of control)): 75%; activity at 5 µM (Aβ1-40; Table 3): 57.1%
CC1=C(C(=O)Nc2ccc(Cl)cc2)C(c2ccccc2)C(C#N)=C(SCC(=O)Nc2ccc(C(C)C)cc2)N1 (stereo not drawn) [RI_54] | 52.6 % of control | 45.89 % of control | – | – | –
COc1ccc(OC)c(C2C(C(=O)OC3CCCCC3)=C(C)NC3=C2C(=O)CCC3)c1 (stereo not drawn) [ST013270, cyclohexyl 4-(2,5-dimethoxyphenyl)-2-methyl-5-oxo-1,4,6,7,8-pentahydroquinoline-3-carboxylate] | – | – | 35 | 19.7 | –
COC(=O)CSC1=C(C#N)C(c2ccc(Cl)cc2)C(C(=O)OC(C)(C)C)=C(C)N1 (stereo not drawn) [ST050862, methyl 2-{5-[(tert-butyl)oxycarbonyl]-4-(4-chlorophenyl)-3-cyano-6-methyl-2-1,4-dihydropyridylthio}acetate] | 56.21 % of control | 65.24 % of control | – | – | –
CCCCCOC(=O)C1=C(C)NC2=C(C(=O)CCC2)C1c1ccccc1OCC (stereo not drawn) [ST015174, pentyl 4-(2-ethoxyphenyl)-2-methyl-5-oxo-1,4,6,7,8-pentahydroquinoline-3-carboxylate] | – | – | 0 | 17.2 | –
COC(=O)C1=C(C)NC2=C(C(=O)CC(c3ccc(Cl)cc3)C2)C1c1ccccc1 (stereo not drawn) [ST015218, methyl 7-(4-chlorophenyl)-2-methyl-5-oxo-4-phenyl-1,4,6,7,8-pentahydroquinoline-3-carboxylate] | – | – | 0 | 59.3 | –
COC(=O)C1=C(N)n2c(s/c(=C/c3cccnc3)c2=O)=C(C(=O)OC)C1c1cccnc1 (stereo not drawn) [ST011768, methyl 5-amino-6-(methoxycarbonyl)-3-oxo-7-(3-pyridyl)-2-(3-pyridylmethylene)-4,7-dihydro-1,3-thiazolidino[3,2-a]pyridine-8-carboxylate] | 97.83 % of control | 42.71 % of control | – | – | –
CC1=C(C(=O)OC(C)C)C(c2cccnc2)C2=C(CC(c3ccc(Cl)cc3)CC2=O)N1 (stereo not drawn) [ST017331, methylethyl 7-(4-chlorophenyl)-2-methyl-5-oxo-4-(3-pyridyl)-1,4,6,7,8-pentahydroquinoline-3-carboxylate] | – | – | 0 | 1.11 | –
CCCCCOC(=O)C1=C(C)NC2=C(C(=O)CC(C)(C)C2)C1c1ccccc1Br (stereo not drawn) [ST216079, pentyl 4-(2-bromophenyl)-2,7,7-trimethyl-5-oxo-1,4,6,7,8-pentahydroquinoline-3-carboxylate] | – | – | 20.5 | 25.8 | –
CC1=C(C(=O)OC(C)C)C(c2ccccc2)C2=C(CC(c3ccccc3)CC2=O)N1 (stereo not drawn) [ST017212, methylethyl 2-methyl-5-oxo-4,7-diphenyl-1,4,6,7,8-pentahydroquinoline-3-carboxylate] | – | – | 57.1 | 25.4 | –
CCOCCOC(=O)C1=C(C)NC2=C(C(=O)CCC2)C1c1cccc(O)c1 (stereo not drawn) [ST013342, 2-ethoxyethyl 4-(3-hydroxyphenyl)-2-methyl-5-oxo-1,4,6,7,8-pentahydroquinoline-3-carboxylate] | – | – | 55.5 | 69.7 | –
CC1=C(C(=O)Nc2ccc(Cl)cc2)C(c2ccccc2)C(C#N)=C(SCC(=O)Nc2ccccc2)N1 (stereo not drawn) [RI_42] | 36.2 % of control | 27.2 % of control | – | – | –
CC1=C(C(=O)Nc2ccccc2)C(c2cccs2)C(C#N)=C(SCC(=O)N2CCCCCCCCCCC2)N1 (stereo not drawn) [RI_32] | 62.8 % of control | 62.9 % of control | – | – | –
CCOC(=O)C1=C(C)NC2=C(C(=O)CC(C)(C)C2)C1c1cc2c(cc1[NH+]([O-])O)OCO2 (stereo not drawn) [ST013060, ethyl 2,7,7-trimethyl-4-(6-nitro(2H-benzo[d]1,3-dioxolan-5-yl))-5-oxo-1,4,6,7,8-pentahydroquinoline-3-carboxylate] | – | – | 99.4 | 32.7 | –
COCCOC(=O)C1=C(C)NC2=C(C(=O)CC(c3ccccc3)C2)C1c1ccc([N+](=O)[O-])cc1 (stereo not drawn) [ST017027, 2-methoxyethyl 2-methyl-4-(4-nitrophenyl)-5-oxo-7-phenyl-1,4,6,7,8-pentahydroquinoline-3-carboxylate] | – | – | 82.1 | 35.1 | –
